{
  "source": "patent US5112740A",
  "about": "“Carbon dioxide assay for body fluids comprising carbonic anhydrase” (Eastman Kodak Company, priority 1989, dated 1992)",
  "key": {"carbonic anhydrase [1]": {"system": "carbonic anhydrase", "test": "Carbonic anhydrase inhibitors tested against hemolysate bias on the enzymatic CO2 slide (Example 3)", "type": "biochemical, human", "details": "for Enzymatic Bicarbonate With Hemolysate: hemoglobin 200 mg/dL, 1 hour room temperature; for Bias: with vs without hemolysate (hemoglobin 200 mg/dL)", "protocol": "(§1) A stock hemolysate solution was prepared by collecting fresh blood from suitable human donors. The erythrocytes of the blood was pooled, and then washed with saline four times. The erythrocytes were then lysed by five cycles of freezing to -70° C. and thawing at 37° C. The resulting hemolysate was filtered through Whatman No. 1 (Whatman Ltd. UK) filter paper. Hemoglobin concentration in mg/dL was determined by the method of Harboe described in Sca. J. Clinical Lab. Invest. […] The concentration of hemoglobin is directly related to the level of carbonic anhydrase in the hemolysate stock solution.\nThe enzymatic values for CO2 were determined on the test samples with dry-chemistry slides on an […] Clinical Chemistry Analyzer (available from Eastman Kodak Company, Rochester, N.Y.). The principle of the assay is as represented above by reaction series (1) and (5). […] It had the following format:\nA stock solution of 50 mmol/L bicarbonate was prepared in 100 mmol/L tricine buffer (pH 8.0)."}, "carbonic anhydrase [2]": {"system": "carbonic anhydrase", "experimental": "Reference values for CO2 (Table I) on test samples were determined using a thermal conductivity procedure on the Corning 965 carbon dioxide analyzer. The technology of the reference procedure is such that it is not affected by carbonic anhydrase.\nThe enzymatic values for CO2 were determined on the test samples with dry-chemistry slides on an [sequence] Clinical Chemistry Analyzer (available from Eastman Kodak Company, Rochester, N.Y.). The principle of the assay is as represented above by reaction series (1) and (5). […] It had the following format:\nA stock solution of 50 mmol/L bicarbonate was prepared in 100 mmol/L tricine buffer (pH 8.0). The stock bicarbonate was diluted with either (a) the buffer or (b) the stock hemolysate and the buffer to give test solutions of about 25 mmol/L HCO3^- and varying concentrations of hemoglobin."}, "carbonic anhydrase [3]": {"system": "carbonic anhydrase", "details": "solution assay"}, "carbonic anhydrase [4]": {"system": "carbonic anhydrase", "details": "acetazolamide included in the enzymatic CO2 dry chemistry element", "protocol": "as §1"}, "[5]": {"details": "final inhibitor concentration 5.0 mmol/L"}, "[6]": {"details": "final inhibitor concentration 1.0 mmol/L"}, "[7]": {"details": "final inhibitor concentration 2.5 mmol/L"}, "[8]": {"details": "final inhibitor concentration 20.0 mmol/L"}, "[9]": {"details": "final inhibitor concentration 2.0 mmol/L"}},
  "data": [
    {"smiles": "O[C@H](CS)[C@@H](O)CS", "note": "[Dithioerythritol]", "values": [
      {"measurement": "Enzymatic Bicarbonate With Hemolysate", "setting": "carbonic anhydrase [1]; [5]", "value": 17.5, "unit": "mmol/L"},
      {"measurement": "Bias", "setting": "carbonic anhydrase [1]; [5]", "value": -5.8, "unit": "mmol/L"}
    ]},
    {"smiles": "CC(=O)Nc1nnc(S(N)(=O)=O)s1", "note": "[Acetazolamide]", "values": [
      {"measurement": "Effectiveness in eliminating the negative bias of the enzymatic CO2 assay", "setting": "carbonic anhydrase [1]; among the carbonic anhydrase inhibitors tested", "value": "most effective"},
      {"measurement": "Enzymatic Bicarbonate With Hemolysate", "setting": "carbonic anhydrase [1]; [6]", "value": 22.9, "unit": "mmol/L"},
      {"measurement": "Bias", "setting": "carbonic anhydrase [1]; [6]", "value": -0.3, "unit": "mmol/L"},
      {"measurement": "Effect on bias seen with freshly prepared hemolysates", "setting": "carbonic anhydrase [2]; acetazolamide included in the enzymatic CO2 dry chemistry element", "value": "significantly reduces the bias"},
      {"measurement": "Effectiveness when included in the reagent layer", "setting": "carbonic anhydrase [2]; reagent layer compared with spreading layer", "value": "equally as effective"},
      {"measurement": "Minimum concentration effective as an inhibitor", "setting": "carbonic anhydrase [3]", "value": "at least 0.1 mmol/L"},
      {"measurement": "Effect on bias seen with hemolyzed and apparently non-hemolysed patient samples", "setting": "carbonic anhydrase [4]", "value": "effectively eliminates the bias"}
    ]},
    {"smiles": "N#CS", "note": "[Thiocyanate]", "values": [
      {"measurement": "Enzymatic Bicarbonate With Hemolysate", "setting": "carbonic anhydrase [1]; [7]", "value": 15.3, "unit": "mmol/L"},
      {"measurement": "Bias", "setting": "carbonic anhydrase [1]; [7]", "value": -6.7, "unit": "mmol/L"}
    ]},
    {"smiles": "[N-]=[N+]=[N-]", "note": "[Azide]", "values": [
      {"measurement": "Enzymatic Bicarbonate With Hemolysate", "setting": "carbonic anhydrase [1]; [7]", "value": 16.5, "unit": "mmol/L"},
      {"measurement": "Bias", "setting": "carbonic anhydrase [1]; [7]", "value": -6.8, "unit": "mmol/L"}
    ]},
    {"smiles": "O=C(O)CN(CCN(CC(=O)O)CC(=O)O)CC(=O)O", "note": "[EDTA, Ethylenediaminetetraacetic acid]", "values": [
      {"measurement": "Enzymatic Bicarbonate With Hemolysate", "setting": "carbonic anhydrase [1]; [5]", "value": 14.7, "unit": "mmol/L"},
      {"measurement": "Bias", "setting": "carbonic anhydrase [1]; [5]", "value": -8.1, "unit": "mmol/L"}
    ]},
    {"smiles": "CC(N)C(=O)O", "note": "(racemic) [DL-Alanine]", "values": [
      {"measurement": "Enzymatic Bicarbonate With Hemolysate", "setting": "carbonic anhydrase [1]; [8]", "value": 14.3, "unit": "mmol/L"},
      {"measurement": "Bias", "setting": "carbonic anhydrase [1]; [8]", "value": -8.6, "unit": "mmol/L"}
    ]},
    {"smiles": "Nc1ccc(S(=O)(=O)Nc2nccs2)cc1", "note": "[Sulfathiazole]", "values": [
      {"measurement": "Enzymatic Bicarbonate With Hemolysate", "setting": "carbonic anhydrase [1]; [9]", "value": 15.8, "unit": "mmol/L"},
      {"measurement": "Bias", "setting": "carbonic anhydrase [1]; [9]", "value": -8.4, "unit": "mmol/L"}
    ]},
    {"smiles": "Nc1ccc(S(N)(=O)=O)cc1", "note": "[Sulfanilamide]", "values": [
      {"measurement": "Enzymatic Bicarbonate With Hemolysate", "setting": "carbonic anhydrase [1]; [9]", "value": 14.9, "unit": "mmol/L"},
      {"measurement": "Bias", "setting": "carbonic anhydrase [1]; [9]", "value": -7.9, "unit": "mmol/L"}
    ]},
    {"smiles": "O=C(O)CN(CCO)CCN(CC(=O)O)CC(=O)O", "note": "[HEDTA, NHydroxyethylethylenediaminetriacetic acid]", "values": [
      {"measurement": "Enzymatic Bicarbonate With Hemolysate", "setting": "carbonic anhydrase [1]; [5]", "value": 15.7, "unit": "mmol/L"},
      {"measurement": "Bias", "setting": "carbonic anhydrase [1]; [5]", "value": -7.6, "unit": "mmol/L"}
    ]},
    {"smiles": "NCC(=O)O", "note": "[Glycine]", "values": [
      {"measurement": "Enzymatic Bicarbonate With Hemolysate", "setting": "carbonic anhydrase [1]; [8]", "value": 14.3, "unit": "mmol/L"},
      {"measurement": "Bias", "setting": "carbonic anhydrase [1]; [8]", "value": -8.1, "unit": "mmol/L"}
    ]}
  ]
}
